PubChem BioAssay AID1259407 (Chemical Carcinogenesis Research Information System (CCRIS), 2018)
Calls of active or inactive are those of the source. No rule for the calls is given here.

Test system: CCRIS mutagenicity, Ames/micronucleus/aberration tests
Experiment: CCRIS mutagenicity studies
[1] = Test System: AMES SALMONELLA TYPHIMURIUM, Strain/Indicator: TA98, Metabolic Activation: NONE, Method: STANDARD PLATE
[2] = Test System: AMES SALMONELLA TYPHIMURIUM, Strain/Indicator: TA100, Metabolic Activation: NONE, Method: STANDARD PLATE
[3] = Test System: AMES SALMONELLA TYPHIMURIUM, Strain/Indicator: TA1535, Metabolic Activation: NONE, Method: STANDARD PLATE
[4] = Test System: AMES SALMONELLA TYPHIMURIUM, Strain/Indicator: TA1537, Metabolic Activation: NONE, Method: STANDARD PLATE
[5] = Test System: AMES SALMONELLA TYPHIMURIUM, Strain/Indicator: TA1538, Metabolic Activation: NONE, Method: STANDARD PLATE
[6] = Test System: AMES SALMONELLA TYPHIMURIUM, Strain/Indicator: TA1538, Metabolic Activation: RAT, LIVER, S-9, AROCLOR 1254, Method: STANDARD PLATE
[7] = Test System: AMES SALMONELLA TYPHIMURIUM, Strain/Indicator: TA98, Metabolic Activation: RAT, LIVER, S-9, AROCLOR 1254, Method: STANDARD PLATE
[8] = Test System: AMES SALMONELLA TYPHIMURIUM, Strain/Indicator: TA100, Metabolic Activation: RAT, LIVER, S-9, AROCLOR 1254, Method: STANDARD PLATE
[9] = Test System: AMES SALMONELLA TYPHIMURIUM, Strain/Indicator: TA98, Metabolic Activation: NONE, Method: PREINCUBATION
[10] = Test System: AMES SALMONELLA TYPHIMURIUM, Strain/Indicator: TA100, Metabolic Activation: NONE, Method: PREINCUBATION
[11] = Test System: AMES SALMONELLA TYPHIMURIUM, Strain/Indicator: TA1535, Metabolic Activation: RAT, LIVER, S-9, AROCLOR 1254, Method: STANDARD PLATE
[12] = Test System: AMES SALMONELLA TYPHIMURIUM, Strain/Indicator: TA1537, Metabolic Activation: RAT, LIVER, S-9, AROCLOR 1254, Method: STANDARD PLATE

## C=CC(=O)OCCOC(=O)C=C
Test System: AMES SALMONELLA TYPHIMURIUM, Strain/Indicator: TA98, Metabolic Activation: HAMSTER, LIVER, S-9, AROCLOR 1254, Method: STANDARD PLATE
  mutagenic call: inactive; negative
[1]
  mutagenic call: inactive; negative
Test System: AMES SALMONELLA TYPHIMURIUM, Strain/Indicator: TA98, Metabolic Activation: RAT, LIVER, S-9, SODIUM PHENOBARBITAL, Method: STANDARD PLATE
  mutagenic call: inactive; negative
Test System: AMES SALMONELLA TYPHIMURIUM, Strain/Indicator: TA100, Metabolic Activation: HAMSTER, LIVER, S-9, AROCLOR 1254, Method: STANDARD PLATE
  mutagenic call: inactive; negative
[2]
  mutagenic call: inactive; negative
Test System: AMES SALMONELLA TYPHIMURIUM, Strain/Indicator: TA100, Metabolic Activation: RAT, LIVER, S-9, SODIUM PHENOBARBITAL, Method: STANDARD PLATE
  mutagenic call: inactive; negative
Test System: AMES SALMONELLA TYPHIMURIUM, Strain/Indicator: TA1535, Metabolic Activation: HAMSTER, LIVER, S-9, AROCLOR 1254, Method: STANDARD PLATE
  mutagenic call: inactive; negative
[3]
  mutagenic call: inactive; negative
Test System: AMES SALMONELLA TYPHIMURIUM, Strain/Indicator: TA1535, Metabolic Activation: RAT, LIVER, S-9, SODIUM PHENOBARBITAL, Method: STANDARD PLATE
  mutagenic call: inactive; negative
Test System: AMES SALMONELLA TYPHIMURIUM, Strain/Indicator: TA1537, Metabolic Activation: HAMSTER, LIVER, S-9, AROCLOR 1254, Method: STANDARD PLATE
  mutagenic call: inactive; negative
[4]
  mutagenic call: inactive; negative
Test System: AMES SALMONELLA TYPHIMURIUM, Strain/Indicator: TA1537, Metabolic Activation: RAT, LIVER, S-9, SODIUM PHENOBARBITAL, Method: STANDARD PLATE
  mutagenic call: inactive; negative
[5]
  mutagenic call: inactive; negative
[6]
  mutagenic call: inactive; negative
Test System: AMES SALMONELLA TYPHIMURIUM, Strain/Indicator: TA1538, Metabolic Activation: RAT, LIVER, S-9, SODIUM PHENOBARBITAL, Method: STANDARD PLATE
  mutagenic call: inactive; negative

## CC(C)(C)NCC(O)COc1cccc2c1CC(O)C(O)C2 (configuration not stated)
[1]
  mutagenic call: inactive; negative
[7]
  mutagenic call: inactive; negative
[2]
  mutagenic call: inactive; negative
[8]
  mutagenic call: inactive; negative
Test System: UDS HUMAN HEPATOCYTES, Strain/Indicator: THY INCORP, Metabolic Activation: NONE, Method: AUTORADIOGRAPHY
  mutagenic call: inactive; negative
Test System: UDS RAT HEPATOCYTES, Strain/Indicator: THY INCORP, Metabolic Activation: NONE, Method: AUTORADIOGRAPHY
  mutagenic call: inactive; negative

## CNc1ccnc(-c2cc(N(C)C)ccn2)c1.CNc1ccnc(-c2cc(N(C)C)ccn2)c1.F[P-](F)(F)(F)(F)F.F[P-](F)(F)(F)(F)F.F[P-](F)(F)(F)(F)F.F[P-](F)(F)(F)(F)F.[NH3+]Cc1ccnc(-c2cc(C[NH3+])ccn2)c1.[Os+2]
[1]
  mutagenic call: inactive; negative
[7]
  mutagenic call: inactive; negative
[2]
  mutagenic call: inactive; negative
[8]
  mutagenic call: inactive; negative

## O=c1oc2c([N+](=O)[O-])ccc3ccc4cccc1c4c32
Test System: AMES SALMONELLA TYPHIMURIUM, Strain/Indicator: TA98(1,8-DNP6), Metabolic Activation: NONE, Method: PREINCUBATION
  mutagenic call: active; positive
Test System: AMES SALMONELLA TYPHIMURIUM, Strain/Indicator: TA98(1,8-DNP6), Metabolic Activation: RAT, LIVER, S-9, AROCLOR 1254, Method: PREINCUBATION
  mutagenic call: active; positive
Test System: AMES SALMONELLA TYPHIMURIUM, Strain/Indicator: TA98(NR), Metabolic Activation: NONE, Method: PREINCUBATION
  mutagenic call: active; positive
Test System: AMES SALMONELLA TYPHIMURIUM, Strain/Indicator: TA98(NR), Metabolic Activation: RAT, LIVER, S-9, AROCLOR 1254, Method: PREINCUBATION
  mutagenic call: active; positive
[9]
  mutagenic call: active; positive
Test System: AMES SALMONELLA TYPHIMURIUM, Strain/Indicator: TA98, Metabolic Activation: RAT, LIVER, S-9, AROCLOR 1254, Method: PREINCUBATION
  mutagenic call: active; positive
[10]
  mutagenic call: active; positive
Test System: AMES SALMONELLA TYPHIMURIUM, Strain/Indicator: TA100, Metabolic Activation: RAT, LIVER, S-9, AROCLOR 1254, Method: PREINCUBATION
  mutagenic call: active; positive

## O=C(O)/C(Cl)=C(\CCl)C(Cl)Cl
[9]
  mutagenic call: active; positive
[10]
  mutagenic call: active; positive
Test System: AMES SALMONELLA TYPHIMURIUM, Strain/Indicator: TA104, Metabolic Activation: NONE, Method: PREINCUBATION
  mutagenic call: active; positive

## Cc1cc(O)c2c(O)c3c(O)cccc3cc2c1
[1]
  mutagenic call: inactive; negative
[7]
  mutagenic call: inactive; negative
[2]
  mutagenic call: inactive; negative
[8]
  mutagenic call: inactive; negative
[3]
  mutagenic call: inactive; negative
[11]
  mutagenic call: inactive; negative
[12]
  mutagenic call: active; positive
[5]
  mutagenic call: inactive; negative
[6]
  mutagenic call: inactive; negative

## C[C@@H]1O[C@@H](O[C@H]2C[C@@H](O)[C@]3(CO)[C@H]4[C@H](O)C[C@]5(C)[C@@H](C6=CC(=O)OC6)CC[C@]5(O)[C@@H]4CC[C@]3(O)C2)[C@H](O)[C@H](O)[C@H]1O
Test System: MOUSE LYMPHOMA, Strain/Indicator: L5178Y (TK+/TK-), Metabolic Activation: NONE, Method: SUSPENSION/PLATE
  mutagenic call: active; positive

## c1ccc(Cc2ccccc2OCC2CO2)cc1 (configuration not stated)
[2]
  mutagenic call: active; positive
[3]
  mutagenic call: active; positive

## O[C@H]1[C@H](O)COC(NCCc2c[nH]c3ccccc23)[C@@H]1O (some centres not stated)
Test System: AMES SALMONELLA TYPHIMURIUM, Strain/Indicator: TA100, Metabolic Activation: NONE, Method: LIQUID INCUBATION
  mutagenic call: active; positive

## O=[N+]([O-])c1cc(NS(=O)(=O)c2cccc3cccnc23)ccc1Cl
[1]
  mutagenic call: inactive; negative
[7]
  mutagenic call: inactive; negative
[2]
  mutagenic call: inactive; negative
[8]
  mutagenic call: inactive; negative
[3]
  mutagenic call: inactive; negative
[11]
  mutagenic call: inactive; negative
[4]
  mutagenic call: inactive; negative
[12]
  mutagenic call: inactive; negative
